{"source": "patent US7815905B2", "about": "“Methods of increasing insulin sensitivity or decreasing insulin secretion by administering corticotropin releasing factor receptor-2 inhibitors” (Research Development Foundation, priority 2006, dated 2010)", "key": {"[1]": {"details": "Rivier et al., 2003; cited from earlier work"}, "[2]": {"tested_on": "isolated rat islets", "experiment": "Insulin secretion from isolated rat islets", "assay_type": "cell-based", "details": "isolated rat islets; for insulin secretion induced by 16.8 mM glucose: pretreated", "method": "FIG. 4a-b: The effect of CRFR2 antagonist on insulin secretion in isolated rat islets. (a) The effect of astressin2B (Ast2-B) on insulin secretion in response to glucose in isolated rat islets. […] The asterisk indicates a statistically significant difference between results from the control versus Ast2-B. (b) Isolated rat isles were pre-treated with anti-Ucn 3 IgG or control IgG followed by addition of indicated concentration of glucose. Y-axis indicates insulin secretion from the treated islets. The double asterisks indicate a statistically significant difference between the indicated treatments. […]\nTo assess the effect of CRFR2 antagonism on islet cell function secretion of insulin from isolated rat islets was studied. […] Thus, activation of CRFR2 by endogenous ligands is involved in insulin secretion induced by high levels of glucose.\nIn order to determine the role of Ucn 3 in glucose induced insulin secretion, isolated rat islets were pretreated with an anti-Ucn 3 IgG prior to glucose treatment."}, "[3]": {"tested_on": "isolated rat islets", "experiment": "Insulin secretion from isolated rat islets", "assay_type": "cell-based", "details": "exendin-4 10 nM + 8.4 mM glucose; listed as Ast2-B"}, "[4]": {"tested_on": "wild type mice", "experiment": "Glucose tolerance test (GTT) in wild type mice", "assay_type": "in vivo, mouse", "details": "fasted male wild type mice; 30 μg/kg IP 20 min prior to glucose 2 g/kg", "method": "FIG. 1a-f: Metabolic phenotype of Ucn 2 null mice. […] The ability of the Ucn 2 null mice and wild type littermates to handle a glucose load was assessed using a standard glucose tolerance test (see example 1). Fasted male mice were injected intraperitoneally (IP) with glucose (2 g/kg body weight) and blood glucose levels were measured before and at 15, 30, 60, 90 and 120 min following glucose injection. […] Fasted male Ucn 2 null mice were injected IP with saline or with 0.1 μg/kg body weight Ucn 2, 20 min prior to glucose injection (2 g/kg body weight) and blood glucose levels were measured before and at 15, 30, 60 and 90 min following glucose injection. […] Fasted male wild type mice were injected IP with saline or with astressin2B (30 μg/kg body weight), 20 min prior to glucose injection (2 g/kg body weight), and blood glucose levels were measured before and at 15, 30, 60 and 90 min following glucose injection. (d) The enhanced glucose tolerance in the Ucn 2 null mice is not due to increased insulin secretion. Fasted male mice were injected with glucose (3 g/kg body weight, IP) and blood samples were collected at 2, 5, 15 and 30 min following glucose injection and insulin was measured by radioimmunoassay. […] Fasted male mice were injected with insulin (0.75 U/kg body weight, IP) and blood glucose levels were measured before and at 15, 30, 60 and 90 min following insulin injection. […]"}, "[5]": {"tested_on": "male rats", "experiment": "Glucose induced insulin release in vivo in male rats", "parameters": "species or system rat", "method": "FIG. 9a-c: The effects of CRFR2 signaling on insulin secretion. […] Plasma insulin (b) and glucose (c) levels in male rats treated with vehicle or Ast2-B (0.09-9 nmol/kg). *, P<0.05 vs. vehicle.\nIn order to determine whether blocking of CRFR2 function also modulates glucose induced insulin release in vivo, various doses of Ast2-B (0.09-9 nmol/kg) or vehicle were injected intravenously into male rats through a jugular vein cannula 20 min before injection of a glucose (2.8 mmol/kg) bolus."}, "[6]": {"target": "T1, CRFR2 (Homo sapiens, UniProt Q13324)", "T1 sequence (Q13324 1-411)": "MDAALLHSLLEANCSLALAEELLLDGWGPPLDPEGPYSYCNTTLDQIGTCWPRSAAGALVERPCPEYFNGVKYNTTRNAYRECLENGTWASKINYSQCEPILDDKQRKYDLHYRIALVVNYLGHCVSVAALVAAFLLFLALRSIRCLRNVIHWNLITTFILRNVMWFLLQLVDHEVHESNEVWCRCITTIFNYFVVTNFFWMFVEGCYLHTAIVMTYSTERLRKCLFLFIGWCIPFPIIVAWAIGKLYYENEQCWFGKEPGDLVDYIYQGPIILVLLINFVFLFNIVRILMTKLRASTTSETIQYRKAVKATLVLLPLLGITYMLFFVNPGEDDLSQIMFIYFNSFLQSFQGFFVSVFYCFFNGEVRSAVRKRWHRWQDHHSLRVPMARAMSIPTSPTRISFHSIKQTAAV", "details": "Rivier et al. 2002; cited from earlier work"}}, "note": "Entries after “also recorded” stand apart in the source; their conditions may differ.", "data": [{"substance": "astressin2B: CRFR2 selective antagonist; modified sauvagine polypeptide (SEQ ID NO:10), Rivier et al., 2002", "values": [{"measurement": "crossing of the blood brain barrier", "setting": "[1]", "value": "unlikely to cross the blood brain barrier"}, {"measurement": "insulin secretion induced by 16.8 mM glucose", "setting": "[2]", "value": "has CRFR2 antagonist activity"}, {"measurement": "insulin secretion induced by 16.8 mM glucose", "setting": "[2]; listed as Ast2-B", "value": "significantly attenuated; also recorded: attenuated by Ast2-B in a dose-dependent manner"}, {"measurement": "insulin secretion induced by 16.8 mM glucose", "setting": "[2]; listed as astressin-2B", "value": "attenuates 16.8 mM glucose-induced insulin secretion in a dose-dependent manner"}, {"measurement": "insulin release induced by 2.8 mM glucose", "setting": "[2]; 2.8 mM glucose", "value": "did not affect"}, {"measurement": "insulin secretion induced by 8.4 mM glucose", "setting": "[2]", "value": "did not significantly modify"}, {"measurement": "insulin secretion induced by 8.4 mM glucose", "setting": "[2]; listed as Ast2-B", "value": "did not affect"}, {"measurement": "insulin release induced by 10 mM glucose", "setting": "[2]; 10 mM glucose", "value": "did not affect"}, {"measurement": "Exendin-4 stimulated insulin release", "setting": "[3]", "value": "greatly attenuated; also recorded: the effect was attenuated"}, {"measurement": "glucose tolerance test profile", "setting": "[4]", "value": "has CRFR2 antagonist activity; also recorded: mirrors that of Ucn 2 null mice; also recorded: mimics the Ucn 2 mutant mice glucose tolerance test profile"}, {"measurement": "glucose-induced insulin secretion, highest dose compared to 0.9 nmol/kg", "setting": "[5]; 9 nmol/kg intravenously", "value": "slightly less effective"}, {"measurement": "plasma glucose levels", "setting": "[5]; 0.09-9 nmol/kg intravenously 20 min before glucose 2.8 mmol/kg bolus", "value": "mirrored the results of insulin"}, {"measurement": "glucose-induced insulin secretion (plasma insulin)", "setting": "[5]; 0.09-9 nmol/kg intravenously 20 min before glucose 2.8 mmol/kg bolus, listed as Ast2-B", "value": "attenuated glucose-induced insulin secretion in a dose dependent manner; also recorded: attenuates glucose induced insulin secretion"}, {"measurement": "time of administration needed for CRFR2 antagonist activity", "setting": "[6]", "value": "active when administered concurrently with the CRFR2 agonist"}]}]}
